In patent publication US12048686B2, “Compositions and methods for activating NRF2-dependent gene expression” (The University of Chicago, priority 2018, dated 2024):

Legend:
[1] = test system: alveolar macrophages; assay: PM exposure of alveolar macrophages (Example 6); assay type: cell-based
Description: FIG. 30A-D. CBR-470 activates NRF2 and inhibits PM-induced inflammatory cytokine production from alveolar macrophages. (a-c) Indicated transcript levels in response to PM exposure for 4 hr in the presence and absence of CBR-470, PGK1 inhibitor (10 micromolar). (d) Western blot analysis of NRF2 protein levels under the conditions in a-c.
FIG. 31. Time dependent effects of CBR-470-1 on alveolar macrophage cytokine mRNA levels at specific timepoints
FIG. 32. […] This represents a distinct mechanism of action compared to many other pharmacologic NRF2 activators, which achieve efficacy through induction of ROS (reactive oxygen species).
Indicated transcript levels in response to PM exposure for 4 hr in the presence and absence of CBR-470-1, PGK1 inhibitor (10 micromolar). Western blot analysis of NRF2 protein levels. PM-exposure also results in activation of the NRF2 pathway, which is confirmed by increased transcript levels of its prototypical target Nqo1 (FIG. 30c) and NRF2 protein accumulation (FIG. 30d). […] FIG. 31 illustrates time dependent effects of CBR-470-1 on alveolar macrophage cytokine mRNA levels at specific timepoints. […] This represents a distinct mechanism of action compared to many other pharmacologic NRF2 activators, which achieve efficacy through induction of ROS (reactive oxygen species).

[2] = LC-MS quantification of compound incubated with or without GSH (glutathione reactivity); assay type: physicochemical; settings: 50 μM compound, GSH 1 mM in PBS, 1 hour and 48 hours
Experimental: FIG. 4 A high throughput screen identifies a non-covalent NRF2 activator chemical series which activate a robust NRF2 transcriptional program in multiple cell types. LC-MS quantification of CBR-470-1 (50 μM) incubated in the presence or absence of GSH (1 mM) in PBS for 1 hour (left) and 48 hours (right). Relative ion intensities within each time point were compared with representative chromatograms shown (n=2).

[3] = test system: IMR32 cells; assay: Quantitative metabolomic profiling of IMR32 cells; assay type: cell-based
Experimental: Quantitative Metabolomic Profiling. For polar metabolite profiling experiments, cells were grown in 15 cm plates and cultured in RPMI supplemented with 10% FBS, 2 mM L-glutamine and 1% P/S prior to media replacement containing either vehicle (DMSO) or the indicated dose of CBR-470-1. Following incubation for the appropriate time, cells were scraped into ice-cold PBS and isolated by centrifugation at 1,400 g at 4° C. Cell pellets were resuspended in 300 μl of an 80:20 mixture of cold MeOH/H2O, an internal standard was added (10 nmol d3-serine; Sigma Aldrich), and the suspension was sonicated (Fisher Scientific FB-505) for 5 seconds followed by a 10 minute centrifugation at 16,000 g. […] Metabolite peak transitions and retention times are listed in Table 2 and were confirmed by running standards for measured glycolytic, PPP, CAC and co-factor metabolites. 2-phosphoglycerate and 3-phosphoglycerate isomers were quantified in aggregate (2PG/3PG). Relative metabolite abundance was quantified by integrated peak area for the given MRM-transition, and all metabolite levels were normalized to internal standard extracted ion intensity values for d3-serine. These parameters were used to quantify all metabolites, with the exception of 1,3-BPG and MGx, which required chemical derivitization to stable intermediates prior to LC-MS/MS quantification, as previously reported^20, 33. […]

[4] = control and PM-treated cells, PM 4 hr

For `CC(C)CN[C@H]1CS(=O)(=O)C[C@@H]1S(=O)(=O)c1ccc(Cl)cc1` [CBR-470-1], the ROS elevation ([1]; alveolar macrophages) was “does not cause significant ROS elevation in alveolar macrophages”, the overall cellular bioenergetics ([1]; alveolar macrophages) was “only a slight decrease in overall cellular bioenergetics” and the “Il6 mRNA levels” value [1, 4] was “dose-dependent decreases in 116 and Tnfα mRNA levels in both control and PM-treated cells”. The “Tnfα mRNA levels” value [1, 4] was “dose-dependent decreases in 116 and Tnfα mRNA levels in both control and PM-treated cells”, the “NRF2-signaling (Nqo1 transcript, NRF2 protein)” value ([1]; control and PM-treated macrophages) was “activates NRF2-signaling in both control and PM-treated macrophages” and the “reactivity in glutathione assays” value [2] was “not reactive in glutathione assays”. The “downstream metabolites (3PG, lactate)” value [3] was “depletion of downstream metabolites” and the “metabolite levels upstream of PGK1 (BPG, GAP)” value [3] was “rapid increase in metabolite levels upstream of PGK1”.
